Laboratory results reported in publication PMC9694544, “Conteltinib (CT-707) in patients with advanced ALK-positive non-small cell lung cancer: a multicenter, open-label, first-in-human phase 1 study” (BMC Medicine, 2022).

Experiments:
ALK L1196M = ALK L1196M (Homo sapiens, UniProt Q9UM73, L1196M); test: ALK enzymatic IC50, L1196M; assay type: biochemical
Excerpt: (§1) Supplement 12916_2022_2646_MOESM1_ESM.docx, table 1 | column: ALK Enzymatic IC50 (nM)

[1] = tested on: brain metastasis of ALK-positive NSCLC; test: Intracranial response in patients with measurable brain metastatic lesions; assay type: in vivo, human
[2] = tested on: xenograft models of ALK-positive NSCLC; details: crizotinib-sensitive and crizotinib-resistant tumors; cited from earlier work
ALK R1275Q = ALK R1275Q (Homo sapiens, UniProt Q9UM73, R1275Q); test: ALK enzymatic IC50, R1275Q; assay type: biochemical
Excerpt: as §1

ALK G1202R = ALK G1202R (Homo sapiens, UniProt Q9UM73, G1202R); test: ALK enzymatic IC50, G1202R; assay type: biochemical
Excerpt: as §1

ALK F1174L = ALK F1174L (Homo sapiens, UniProt Q9UM73, F1174L); test: ALK enzymatic IC50, F1174L; assay type: biochemical
Excerpt: as §1

ALK G1269S = ALK G1269S (Homo sapiens, UniProt Q9UM73, G1269S); test: ALK enzymatic IC50, G1269S; assay type: biochemical
Excerpt: as §1

For `COc1cc(N2CCC(N3CCN(C)CC3)CC2)ccc1Nc1nc2c(c(Nc3ccccc3S(=O)(=O)NC(C)C)n1)CCN2` [Conteltinib], the IC50 (ALK L1196M) was 3.8 nM, the “Intracranial DCR (95% CI)” value ([1]; 300 mg BID (n=1)) was 100.0% (2.5-100.0) and the “Intracranial ORR (95% CI)” value ([1]; 300 mg BID (n=1)) was 0.0% (0.0-97.5). The “Intracranial DCR (95% CI)” value ([1]; 450 mg QD (n=2)) was 100.0% (15.8-100.0), the “Intracranial ORR (95% CI)” value ([1]; 450 mg QD (n=2)) was 50% (1.3-98.7) and the “Intracranial DCR (95% CI)” value ([1]; 600 mg QD (n=3)) was 66.7% (9.4-99.2). For the same compound, the “Intracranial ORR (95% CI)” value ([1]; 600 mg QD (n=3)) was 33.3% (0.8-90.6), the “anti-tumor activity in xenograft models” value [2] was “marked anti-tumor activity” and the IC50 (ALK R1275Q) was 1.2 nM. It also gave an IC50 (ALK G1202R) of 6.3 nM, an IC50 (ALK F1174L) of 4.3 nM and an IC50 (ALK G1269S) of 8.4 nM.
